The values that follow come from patent US5013734A, “Novel esters of phenylalkanoic acid” (Ono Pharmaceutical Co., Ltd., priority 1989, dated 1991).

One data set deals with T1, β-receptor (trachea) (Cavia porcellus, UniProt Q8K4Z4).
T1 construct: Trachea was cut into zigzag strip and connected to a force transducer; from tissue; host or cells: isolated guinea pig tracheal zigzag strip
Put plainly: Cardio selectivity of β-receptor blocking effect in vitro: isolated trachea, isoproterenol concentration-response. It is filed as cell-based, guinea pig. The following applies: against isoproterenol (10^-10 M to 10^-4 M), read-out: pA2 value trachea (converted). The text has this:
Concentration-response curves to isoproterenol were then obtained.

A short description of data set [1]: acute toxicity (LD50), intravenous, mice. The following applies: mouse, in vivo; intravenous administration in mice. The text has this:
On the other hand, it was confirmed that the toxicity of the compounds of the present invention was very low. […] Therefore, the compounds of the present invention may be considered to be sufficiently safe and suitable for pharmaceutical use.

For another data set, the system named is β1 -receptor. Kind of data set: β-blocking activity in vivo: inhibition of isoproterenol-induced tachycardia in anesthetized dogs. As to conditions: for Inhibitory effect after administration of compounds of the present invention (inhibition of isoproterenol-induced tachycardia), 10 min: 10 min (during infusion); for Inhibitory effect after administration of compounds of the present invention (inhibition of isoproterenol-induced tachycardia), 10 min / Inhibitory effect after administration of compounds of the present invention (inhibition of isoproterenol-induced tachycardia), 20 min / Inhibitory effect after administration of compounds of the present invention (inhibition of isoproterenol-induced tachycardia), 30 min / Inhibitory effect after administration of compounds of the present invention (inhibition of isoproterenol-induced tachycardia), 35 min / Inhibitory effect after administration of compounds of the present invention (inhibition of isoproterenol-induced tachycardia), 40 min / Inhibitory effect after administration of compounds of the present invention (inhibition of isoproterenol-induced tachycardia), 50 min / Inhibitory effect after administration of compounds of the present invention (inhibition of isoproterenol-induced tachycardia), 60 min: 10 μg/kg/min iv infusion for 30 minutes; for Inhibitory effect after administration of compounds of the present invention (inhibition of isoproterenol-induced tachycardia), 20 min: 20 min (during infusion); for Inhibitory effect after administration of compounds of the present invention (inhibition of isoproterenol-induced tachycardia), 30 min: 30 min (end of infusion); for Inhibitory effect after administration of compounds of the present invention (inhibition of isoproterenol-induced tachycardia), 35 min: 35 min (after infusion); for Inhibitory effect after administration of compounds of the present invention (inhibition of isoproterenol-induced tachycardia), 40 min: 40 min (after infusion); for Inhibitory effect after administration of compounds of the present invention (inhibition of isoproterenol-induced tachycardia), 50 min: 50 min (after infusion); for Inhibitory effect after administration of compounds of the present invention (inhibition of isoproterenol-induced tachycardia), 60 min: 60 min (after infusion); for Duration of action: time required to decrease the inhibition percent 30 minutes after administration to half, 10 μg/kg/min iv infusion. Here is the method:
β-blocking activity of the compounds of the present invention in vivo
Dogs were anesthetized with sodium barbital (300 mg/kg, ip). A femoral artery and both femoral veins were cannulated. Blood pressure was measured with a pressure transducer. Heart rate was measured from the blood pressure signal using a cardiotachometer. The β-blocking activity was assessed by the inhibition of isoproterenol-induced tachycardia. Isoproterenol was administered intravenously (0.1~0.3 μg/kg) at 10 minutes intervals. When a regular tachycardia induced by isoproterenol was given, the compound of the present invention was administered (10 μg/kg/min, iv infusion) for 30 minutes. Isoproterenol was given repeatedly during and following infusion of a test compound. The inhibitory effects of the compounds of the present invention on tachycardia were calculated.
Inhibition (%)=((ΔRO-ΔRa)/ΔRO)×100
ΔRO: the increment of heart rate by isoproterenol before infusion of the compound of the present invention
ΔRa: the increment of heart rate by isoproterenol during and after infusion of the compound of the present invention

The structures appear in SMILES notation. Where a name gives a salt, the structure may show the parent alone.

T1 sequence (Q8K4Z4 whole entry): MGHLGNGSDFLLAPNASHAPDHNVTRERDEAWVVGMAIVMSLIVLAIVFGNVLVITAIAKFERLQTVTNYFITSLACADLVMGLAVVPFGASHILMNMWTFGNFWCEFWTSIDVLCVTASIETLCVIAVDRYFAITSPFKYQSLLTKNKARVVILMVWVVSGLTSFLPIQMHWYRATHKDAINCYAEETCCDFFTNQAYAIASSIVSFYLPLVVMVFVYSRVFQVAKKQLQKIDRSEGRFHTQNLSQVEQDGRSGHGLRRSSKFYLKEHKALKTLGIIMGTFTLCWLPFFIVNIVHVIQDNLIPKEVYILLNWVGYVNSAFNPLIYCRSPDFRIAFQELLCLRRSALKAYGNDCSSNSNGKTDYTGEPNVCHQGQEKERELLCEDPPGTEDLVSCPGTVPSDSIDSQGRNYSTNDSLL

Consider `CC1(C)OC[C@@H](COC(=O)CCc2ccc(OC[C@@H](O)CNCCNC(=O)N3CCOCC3)cc2)O1` [2 (b), (2,2-dimethyl-1,3-dioxolan-4S-yl)methyl 3-[4-[2S-hydroxy-3-(2-morpholinocarbonylaminoethyl)aminopropoxy]phenyl]propionate 1/2 oxalate], for which the Kb at β-receptor (trachea) is 66.1 µM. In data set [1], the LD50 was 290 mg/kg.
`O=C(CCc1ccc(OCC(O)CNCCNC(=O)N2CCOCC2)cc1)OCC1COC2(CCCC2)O1` (stereo not shown) [3 (c), (1,4-dioxaspiro[4,4]-nonan-2-yl)methyl 3-[4-[2-hydroxy-3-(2-morpholinocarbonylaminoethyl)aminopropoxy]phenyl]-ropionate 1/2 oxalate]: in the data set on β1 -receptor, the “Inhibitory effect after administration of compounds of the present invention (inhibition of isoproterenol-induced tachycardia), 10 min” value (from here on “Inhibitory effect after administration … 10 min”) was 38.3%; the “Inhibitory effect after administration of compounds of the present invention (inhibition of isoproterenol-induced tachycardia), 20 min” value (from here on “Inhibitory effect after administration … 20 min”) amounted to 46.9%; the “Inhibitory effect after administration of compounds of the present invention (inhibition of isoproterenol-induced tachycardia), 30 min” value (from here on “Inhibitory effect after administration … 30 min”) is listed as 40.4%; the “Inhibitory effect after administration of compounds of the present invention (inhibition of isoproterenol-induced tachycardia), 35 min” value (from here on “Inhibitory effect after administration … 35 min”) was 37.0%. In the data set with β1 -receptor, the “Inhibitory effect after administration of compounds of the present invention (inhibition of isoproterenol-induced tachycardia), 40 min” value (from here on “Inhibitory effect after administration … 40 min”) is reported as 20.1%; the “Inhibitory effect after administration of compounds of the present invention (inhibition of isoproterenol-induced tachycardia), 50 min” value (from here on “Inhibitory effect after administration … 50 min”) is recorded as -2.6%; the “Inhibitory effect after administration of compounds of the present invention (inhibition of isoproterenol-induced tachycardia), 60 min” value (from here on “Inhibitory effect after administration … 60 min”) is -1.3%; the Duration of action turned out to be 10 min.
Take `CC1(C)OCC(COC(=O)CCc2ccc(OC[C@@H](O)CNCCNC(=O)N3CCOCC3)c(F)c2)O1` (stereo partly drawn) [3 (e), (2,2-dimethyl-1,3-dioxolan-4-yl)methyl 3-[3-fluoro-4-[2S-hydroxy-3-(2-morpholinocarbonylaminoethyl)aminopropoxy]phenyl]propionate 1/2 oxalate]: in the data set with β1 -receptor, the “Inhibitory effect after administration … 10 min” value was determined as 49.6%; the “Inhibitory effect after administration … 20 min” value is reported as 58.5%; the “Inhibitory effect after administration … 30 min” value is given as 63.8%; the “Inhibitory effect after administration … 35 min” value is on record as 45.4%. Also, in the data set on β1 -receptor, the “Inhibitory effect after administration … 40 min” value came out at 32.7%; the “Inhibitory effect after administration … 50 min” value came out at 10.8%; the “Inhibitory effect after administration … 60 min” value is -3.3%; the Duration of action turned out to be 10 min.
Take `CC1(C)OCC(COC(=O)CCc2ccc(OC[C@@H](O)CNCCNC(=O)N3CCOCC3)c(C#N)c2)O1` (stereo partly drawn) [3 (j), (2,2-dimethyl-1,3-dioxolan-4-yl)methyl 3-[3-cyano-4-[2S-hydroxy-3-(2-morpholinocarbonylaminoethyl)aminopropoxy]phenyl]propionate 1/2 oxalate]: in the data set with β1 -receptor, the “Inhibitory effect after administration … 10 min” value is 75.7%; the “Inhibitory effect after administration … 20 min” value came out at 69.0%; the “Inhibitory effect after administration … 30 min” value was found to be 68.7%; the “Inhibitory effect after administration … 35 min” value is given as 48.9%. Moreover, in the data set with β1 -receptor, the “Inhibitory effect after administration … 40 min” value was found to be 38.3%; the “Inhibitory effect after administration … 50 min” value is reported as 19.3%; the “Inhibitory effect after administration … 60 min” value worked out at 13.6%; the Duration of action came out at 12 min.
As to `CN1CCN(C(=O)NCCNC[C@H](O)COc2ccc(CCC(=O)OCC3COC(C)(C)O3)cc2)CC1` (stereo partly drawn) [3 (l), (2,2-dimethyl-1,3-dioxolan-4-yl)methyl 3-[4-[2S-hydroxy-3-[2-(4-methylpiperazin-1-yl)carbonylaminoethyl]aminopropoxy]phenyl]propionate 1/2 oxalate], in the data set with β1 -receptor, the “Inhibitory effect after administration … 10 min” value amounted to 60.2%; the “Inhibitory effect after administration … 20 min” value came out at 58.6%; the “Inhibitory effect after administration … 30 min” value amounted to 59.8%; the “Inhibitory effect after administration … 35 min” value is reported as 55.6%. Also, in the data set with β1 -receptor, the “Inhibitory effect after administration … 40 min” value was 41.8%; the “Inhibitory effect after administration … 50 min” value came to 19.6%; the “Inhibitory effect after administration … 60 min” value was 16.3%; the Duration of action is 15 min.

In general, LD50 refers to the dose at which mortality reaches 50%. Lower therefore signals a more toxic substance.
